Experimental data: patent publication US20260183297A1, “SELECTION OF PATIENTS FOR THE TREATMENT OF FADS1-MEDIATED DISEASES OR DISORDERS USING FADS-1 INHIBITORS” (AMGEN INC., priority 2022, published 2026)

Key:
[1] = Liver triglyceride measurement; type: in vivo, mouse; conditions: DIO mice, 8 weeks of 10 or 30 mg/kg
Procedure: Liver total lipids were homogenized and extracted using chloroform methanol solution at a ratio of 2:1. Extracted lipids were dried under nitrogen gas and suspended in 90% isopropanol, 10% Triton X-100 solution. Liver triglyceride levels in mg/g tissue were determined using total triglyceride measurement kits from Wako Diagnostics (Richmond, VA) and Sigma-Aldrich (Burlington, MA).

[2] = tested on: liver, EPI WAT and ING WAT; experiment: RNA-Seq analysis of liver, EPI WAT and ING WAT; type: in vivo, mouse; conditions: 30 mg/kg, 54 days
Procedure: RNA was extracted by using the Qiagen RNeasy 96 Universal kit (QIAGEN, Germantown, MD). The concentration and quality of the isolated RNA samples were assessed and determined on an Agilent 4200 TapeStation system and had RNA integrity numbers more than 9.1. Adipose or liver RNA (250 ng) was used to prepare a cDNA library by using a protocol modified from the Illumina TruSeq Stranded mRNA kit (Illumina, San Diego CA). Briefly, after polyA^+ RNA selection, fragmentation, and priming, the fragmented RNA was transcribed to cDNA in the reaction of reverse transcription containing SuperScript™ II (Thermo Fisher Scientific—Invitrogen™, Waltham, MA) and RNase-out (Thermo Fisher Scientific—Invitrogen™, Waltham, MA) and, sequentially, the products of the first strand cDNA synthesis reaction were converted to double-stranded cDNAs and subjected to end repair, A-tailing, and adapter ligation by following the commercial instruction. The constructed libraries were amplified and barcoded using the PCR program: a denaturation step at 98° C. for 30 seconds, 15 cycles of 95° C. for 10 seconds, 60° C. for 30 seconds, and 72° C. for 30 seconds, and a 72° C. extension cycle for 5 minutes followed by a hold step at 4° C. Libraries were sequenced to a minimum depth of 30 million paired end reads on an Illumina HiSeq4000 with the 100 nt or 150 nt read length.
RNA-Seq sequencing reads of the mouse samples were aligned and processed using OSA aligner, which is implemented in the OmicSoft Array Suite (QIAGEN OmicSoft, Cary, NC), based on mouse genome version GRCm38 and gene model GENCODE v19. Read count quantification was performed to the gene level based on OmicSoft implementation of RSEM. Downstream analysis using the read count output was performed following the standard RNA-seq workflow of DESeq2 R/Bioconductor package. Briefly, raw read count was transformed and nonnalized using the Variance Stabilizing Transformation (VST) method. Principal component analysis (PCA) was carried out by the plotPCA function using top 1000 variable genes. Differential expression analysis based on the negative binomial distribution was performed using the DESeq function.
Gene expression was represented as normalized fragments per kilobase per million reads (FPKM). FPKM values were further normalized with a refinement of the commonly employed upper-quartile method that sets the FPKM to a value of 10 at the 70th percentile. Lowly expressed genes with fewer than five samples at FPKM≥1 were removed. Genes with Benjamini-Hochberg (BH)-adjusted P value <0.01 and fold change ≥2 or ≤0.5 were selected as DEGs. Volcano plots of differential expression analysis results were made using EnhancedVolcano R package (github.com/kevinblighe/EnhancedVolcano).
The selected DEGs were annotated by IPA (QIAGEN, Redwood City, CA) on canonical pathways and toxicity lists. Gene expression enrichment in Gene Ontology (GO), KEGG was analyzed by using Cluster Profiler R package with default parameters. Deconvolution analysis was performed using MuSiC software v0.2.0 to estimate relative cell type abundance in each mouse bulk tissue samples. The Tabula Muris single-cell RNA-seq data set was used as a reference for MuSiC algorithm. The analysis was done separately for each tissue types including EPI and ING WAT, and liver.

human FADS1 = target: T1, human FADS1 (Homo sapiens, UniProt O60427); experiment: In vitro FADS1 activity assay (HEK 293 cells with FADS1 BacMam, 13C5-DGLA substrate); type: cell-based; conditions: in vitro; read-out: half-maximal inhibitory concentration (IC50) against human FADS1
T1 construct: expressed in transfected cells; host or cells: HEK 293 cells transduced with FADS1 BacMam (MOI 25)
T1 sequence (O60427 whole entry): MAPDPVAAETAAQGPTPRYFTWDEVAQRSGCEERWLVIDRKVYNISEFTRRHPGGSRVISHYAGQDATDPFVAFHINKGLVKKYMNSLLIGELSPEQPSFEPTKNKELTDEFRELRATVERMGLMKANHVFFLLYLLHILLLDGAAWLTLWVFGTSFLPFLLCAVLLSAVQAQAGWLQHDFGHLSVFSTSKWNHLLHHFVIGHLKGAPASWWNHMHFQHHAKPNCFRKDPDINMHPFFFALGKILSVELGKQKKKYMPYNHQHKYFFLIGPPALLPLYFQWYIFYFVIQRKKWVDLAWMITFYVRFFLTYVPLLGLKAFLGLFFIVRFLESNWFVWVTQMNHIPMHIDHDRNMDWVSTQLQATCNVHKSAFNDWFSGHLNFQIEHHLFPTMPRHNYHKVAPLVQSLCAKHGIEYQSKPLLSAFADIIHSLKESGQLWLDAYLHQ
Procedure: HEK 293 cells in Dulbecco's Modified Eagle's medium (DMEM), 10% fetal bovine serum (FBS), 1× penicillin-streptomycin-glutamine (PSG) were mixed with FADS1 BacMam or FADS2 BacMam reagents at multiplicity of infection (MOI) ratio of 25 and plated in a in 96-well poly-D-lysine-coated plate. Plates were incubated in a 37° C., 5% CO2 for 24 hours. Cells were washed with DPBS and cells were incubated with 90 ml of compound dilution in DPBS at 5% CO2, 37° C. for 20 minutes. Ten L of the substrate, ^13C5-DGLA (FADS1), or 13C-LA (FADS2) diluted in DPBS were added to the cells and incubated at 5% CO2, 37° C. for 30 minutes (FADS1) or 45 minutes (FADS2). Cells were then washed with DPBS and 50 μL of 2N NaOH were added to each well and incubated in a 65° C. oven for 1 hour for the saponification reaction. […] Samples were then subjected to LC-MS/MS detection for the following analytes for the FADS1 reaction: ^13C5-DGLA and ^13C5-AA or the following analytes for the FADS2 reaction: ^13C18-LA, ^13C18-GLA, ^13C18-DGLA and ^13C18-AA. Samples were injected onto a Poroshell 120 EC-C18 3.0×50 mm, 1.9 um id column (Agilent, Santa Clara, CA).
The analyte peak areas were quantified by using the Analyst software (SCIEX, Framingham, MA). The percent of substrate to product conversion relative to untreated control were calculated (percent of control [POC]). […]

In the case of `COc1ccn2c(=O)c(-c3cnn(CC(F)(F)C(F)(F)F)c3)c(C(F)(F)F)nc2c1` [Compound A, 8-methoxy-3-(1-(2,2,3,3,3-pentafluoropropyl)-1H-pyrazol-4-yl)-2-(trifluoromethyl)-4H-pyrido[1,2-a]pyrimidin-4-one], the hepatic triglyceride content [1] is reported as “No apparent increase”, the “downregulated pathways (IPA) in the liver” value ([2]; Compound A-treated WT DIO mice) is reported as “downregulation of Acute Phase Response. AMPK Signaling, and Senescence pathways” and the “upregulated pathways (IPA) in the liver” value ([2]; Compound A-treated WT DIO mice) is reported as “upregulation of Calcium Signaling, PPARα/RXRα Activation, and Xenobiotic metabolism AHR Signaling pathways”. The “Insulin Receptor Signaling pathway (IPA) in EPI WAT” value ([2]; DIO mice) was “increased”, the “fatty acid oxidation-related genes (Cpt1a, Acox1, Acaa1a, Fgf21) in the liver” value ([2]; DIO mice) was “increased” and the “inflammation-related genes (Cc12, Cd14, Cd68) in ING WAT” value ([2]; DIO mice) was “decreased”. For the same compound, the “lipolysis (Lipe, Mg11, Pnpla2) and insulin-signaling genes (Insr, Irs1, Slc2a4) in EPI WAT” value ([2]; DIO mice) was “increased”, the “cellular composition of EPI WAT (immune cell population)” value ([2]; DIO mice, relative to WT vehicle) was “decreases in T cells, B cells, and natural killer cells” and the IC50 (human FADS1) was 3 nM.
